Like-named read-outs stand apart in the source and are kept apart here.
Legend:
F. hepatica [1] = settings: sheep naturally infected with F. hepatica; cited from earlier work
[2] = parameters: method as in PMID 15318224; settings: cited from earlier work
human liver microsomes = assay: Metabolism in the presence of human liver microsomes; assay type: in vitro ADME; settings: 10 µM, 2 hours; for parent substance metabolized: functional human liver microsomes, 37 °C
Method: The metabolism of AS, MT04, and OZ78 was tested in the presence of human liver microsomes or heat-inactivated microsomes (70 °C for 20 min, referred to as control microsomes) at 37 °C. AS, MT04 or OZ78 (10 µM each) were added to 1.0 mL of reaction mixture consisting of microsomes ([…]), an NADPH regenerating system, and PBS buffer, pH 7.4. Adding the drugs started the reaction. Aliquots of 100 µL were transferred into Eppendorf tubes after 0, 15, 30, 60, 120 min. The reaction was stopped by adding 300 µL methanol. The samples were then vortexed and centrifuged at 3000 g for 30 min. Supernatants were taken for LC-MS analysis.
LC-MS/MS measurements for AS were performed as described recently. Briefly, sample measurements were done with a high-performance liquid chromatography (HPLC) system (Shimadzu, Kyoto, Japan) connected to an API 365 triple-quadrupole mass spectrometer (PE Biosystems, Foster City, CA, USA) with a turbo ion spray interface. AS was detected in positive ionization mode by selected reaction monitoring (SRM) with a transition of 267.4→163.0. For analyte separation, a reversed phase column was used (2.1 × 10 mm guard cartridge (3 μm) connected to a 2.1 × 20 mm Atlantis T3 3 μm analytical column (Waters, Milford, MA, USA)). A gradient was used (mobile phase A: 5 mM ammonium formiate plus 0.15% (v/v) formic acid in ultra-pure water, mobile phase B: 0.15% (v/v) formic acid in acetonitrile) at a flow rate of 0.3 mL/min.
The analysis of MT04 and OZ78 [42] was conducted using the same system as described for AS. A phenomenex C8 (50mm × 2.00mm, 5µm, Brechbühler AG, Schlieren, Switzerland) was used for chromatographic separation with a gradient (mobile A: 5 mM ammonium formiate in water and mobile B: acetonitrile) at a flow rate of 0.3 mL/min. MS was conducted in negative ionization mode. For OZ78 and MT04 a mass of 321.4 and 337.4, respectively, was detected.

NMRI mice = assay: Liver toxicity study in mice (plasma AST, aPhos, bilirubin, liver histology); assay type: in vivo, mouse; settings: for Histopathologic observation: liver 8 hours; for plasma alkaline phosphatase (aPhos) / plasma aspartate aminotransferase (AST) / total serum bilirubin: single oral dose 200-800 mg/kg, 8 h post-treatment; for hepatic toxicity in vivo (overall): single oral doses up to 800 mg/kg
Method: All animal studies were carried out at the Swiss Tropical and Public Health Institute (Basel, Switzerland) and were approved by Swiss and cantonal authorities (permission: 2070). Female NMRI mice (age: 3–4 weeks, weight: ~20 g) were purchased from Harlan Laboratories (Horst, The Netherlands). Mice were kept in groups of 10 animals in macrolon-cages in environmentally controlled conditions (temperature: ~25 °C; humidity: ~70%; 12 h light/dark cycle) and acclimatized for one week. They had free access to water and rodent diet. For the in vivo studies AS, OZ78 or MT04 were suspended in 7% (v/v) Tween-80 and 3% (v/v) ethanol.
Since treatment of F. hepatica infections in animals is typically performed by a single oral dose, we performed a pilot study to find out the best time point to kill the mice at which we could observe hepatic toxicity after drug application. This time point was 8 h after drug application (data not shown).
In the final experiment, mice were treated with 200, 400, or 800 mg/kg AS, OZ78, or MT04 by oral gavage. Seven mice were left untreated for control measurements. According to the results of the pilot experiments, where we measured the highest increase in total serum bilirubin, AST or alkaline phosphatase 8 h post-treatment, mice were euthanized by CO2 8 h post-treatment, blood was collected and analyzed as described above. After blood collection, the liver was removed, carefully examined macroscopically, and gross lesions were recorded. Livers were then stored in formalin 10% (v/v) until fixation in 4% paraformaldehyde was performed. After embedding in paraffin, sections of 5 μm thickness were obtained, stained with hematoxylin and eosin, and examined using light microscopy.

[3] = Drug solutions in cell culture medium; assay type: physicochemical; settings: from DMSO stock
Method: Stock solutions of the drugs tested were prepared in DMSO 100% (v/v). […] LC-MS measurements confirmed the stability of the compounds (data not shown). Treatments with AS, MT04, or OZ78 (100 or 500 µM) were performed either alone or in combination with 8% (v/v) hemin or FeCl2 solution for 24 h. The final iron concentration used was 122 µM (stock 1.5 mM) based on previous in vitro studies with F. hepatica.

F. hepatica [4] = test system: F. hepatica; parameters: method as in PMID 21316331; settings: 50 µg/mL; cited from earlier work
mice = settings: cited from earlier work

SMILES | parent substance metabolized (human liver microsomes) | Histopathologic observation (NMRI mice; 200 mg/kg oral, mouse 1) | Histopathologic observation (NMRI mice; 200 mg/kg oral, mouse 2) | Histopathologic observation (NMRI mice; 200 mg/kg oral, mouse 3) | Histopathologic observation (NMRI mice; 200 mg/kg oral, mouse 4) | Histopathologic observation (NMRI mice; 400 mg/kg oral, mouse 1) | Histopathologic observation (NMRI mice; 400 mg/kg oral, mouse 2) | Histopathologic observation (NMRI mice; 400 mg/kg oral, mouse 3) | Histopathologic observation (NMRI mice; 400 mg/kg oral, mouse 4) | Histopathologic observation (NMRI mice; 800 mg/kg oral, mouse 1) | Histopathologic observation (NMRI mice; 800 mg/kg oral, mouse 2) | Histopathologic observation (NMRI mice; 800 mg/kg oral, mouse 3) | Histopathologic observation (NMRI mice; 800 mg/kg oral, mouse 4) | liver histology, group summary (NMRI mice; mice, 200 mg/kg oral, 8 h) | liver histology, group summary (NMRI mice; mice, 400 mg/kg oral, 8 h) | liver histology, group summary (NMRI mice; mice, 800 mg/kg oral, 8 h) | plasma alkaline phosphatase (aPhos) (NMRI mice; mice) | plasma aspartate aminotransferase (AST) (NMRI mice; mice) | total serum bilirubin (NMRI mice; mice) | hepatic toxicity in vivo (overall) (NMRI mice; mice, 8 h) | further results
O=C(O)C[C@H]1CC[C@]2(CC1)OOC1(O2)C2CC3CC(C2)CC1C3 (stereo partly drawn) [OZ78] | did not show a decrease | No lesions | Slight hydropic degeneration | Slight hydropic degeneration | No lesions | Slight hydropic degeneration | Passive congestion | Nuclear polymorphism | Slight hydropic degeneration | Slight hydropic degeneration | No lesions | Passive congestion | Slight hydropic degeneration | two mice (out of four) with slight hydropic degeneration of hepatocytes | two mice (out of four) with slight hydropic degeneration of hepatocytes | two mice (out of four) with slight hydropic degeneration of hepatocytes | in the normal range | in the normal range | in the normal range | no relevant hepatic toxicity | effect in sheep (F. hepatica [1]): no effect; mutagenic potential [2]: no mutagenic potential; behaviour of drug solutions in medium [3]: tend to precipitate; activity against the liver fluke F. hepatica (F. hepatica [4]): have activity
C[C@H]1[C@H](OC(=O)CCC(=O)O)O[C@@H]2O[C@@]3(C)CC[C@H]4[C@H](C)CC[C@@H]1[C@@]24OO3 [AS, artesunate, reference compound] | 94% | No lesions | No lesions | No lesions |  | No lesions | No lesions | Beginning nodular regeneration |  | Steatosis | Small area of confluent necrosis | No lesions |  | not associated with liver injury |  | one mouse was without lesions, one with steatosis, and one with confluent necrosis | did not increase | moderately increased with escalating doses | did not increase |  | LD50 (mice; single intramuscular administration): 475 mg/kg; LD50 (mice; single intravenous administration): 520 mg/kg; degradation of parent substance (human liver microsomes; heat-inactivated microsomes): no degradation was detected; time of highest values of AST, aPhos and total serum bilirubin (pilot study) (NMRI mice; mice, single oral dose 400 mg/kg, sampled 2, 4, 8, 12, 24 h): 8 h; liver lesions (pilot study) (NMRI mice; mouse, in vivo, po, 400 mg/kg): no liver lesions were observed
O=C(O)CC1CCC2(CC1)OOC1(OO2)C2CC3CC(C2)CC1C3 (stereo not drawn) [MT04] | did not show a decrease | No lesions | No lesions | No lesions | Nuclear polymorphism | Nuclear polymorphism | Nuclear polymorphism | No lesions | No lesions | No lesions | Slight hydropic degeneration | Slight hydropic degeneration and nuclear polymorphism | Slight hydropic degeneration and nuclear polymorphism |  | no pathologic liver histology | Three out of four mice treated with 800 mg/kg MT04 presented hydropic degeneration |  | did not affect AST levels in a concentration-dependent fashion |  | no relevant hepatic toxicity | egg count reduction (F. hepatica [1]): 98.5%; worm burden reduction (F. hepatica [1]): 92%; AST values of single mice (NMRI mice; mice, 200 mg/kg oral, 8 h): Two mice treated with 200 mg/kg MT04 had highly elevated AST values; behaviour of drug solutions in medium [3]: tend to precipitate; activity against the liver fluke F. hepatica (F. hepatica [4]): have activity
